From publication PMC3898886, “P-glycoprotein (Mdr1a/1b) and breast cancer resistance protein (Bcrp) decrease the uptake of hydrophobic alkyl triphenylphosphonium cations by the brain” (Biochimica et Biophysica Acta, 2013)

Tests used:
[1] = tissue and blood content of [3H] TPP compound after IV tail vein injection, wild type mice; settings: 100 nmol IV; for uptake by adipose tissue / uptake by the heart / uptake by the kidneys: wild type and transgenic mice; for AUC for accumulation into the brain: WT mice
Procedure: (§1) For injection the mice were placed in a restraining tube and injected by the tail vein with 100 nmol [^3H] compound (~ 400–500 nCi) in 100 μL sterile phosphate buffered saline (PBS) supplemented with 10% DMSO. A sample of the [^3H] compound solution injected was retained to calculate the specific activity, which was subsequently used to determine the tissue contents of the compound. Two WT mice and two transgenic mice were injected for each compound for each time point. […] At the indicated times after injection, the mice were killed by cervical dislocation and a blood sample of ~ 100–200 μL was obtained by cardiac puncture. The organs were then removed, cleared of blood by cutting into pieces and rinsing with saline, transferred to pre-chilled Eppendorf tubes on ice, weighed and stored at − 80 °C until processing. The tissues taken were: heart, kidneys, liver, brain, skeletal muscle (gastrocnemius) and white adipose tissue (subcutaneous). […] The mice were monitored after injection to ensure no pathology or distress.
Tissues were thawed at room temperature and transferred to 50 mL Falcon tubes. Ice-cold methanol (~ 4 °C; 1 mL/100 mg tissue wet weight) was added to the tissue and the tissue homogenised using an Ultra Turrax homogeniser (2 × 30 s on ice). The homogenate was transferred in 1 mL batches to 1.5 mL Eppendorf tubes and centrifuged (10,000 ×g for 8 min at 4 °C). The methanol extract was decanted into a 20 mL glass scintillation vial (Wheaton) and the methanol evaporated under a stream of N2. Further ice-cold methanol (1 mL/100 mg) was added to the tissue homogenate pellets, vortexed for 1 min, centrifuged as above and the methanol extract decanted to a fresh 20 mL glass scintillation vial and evaporated. This procedure was repeated 3 more times to give 5 extracts per tissue sample. […] Scintillant (OptiPhase HiSafe II; 10 mL) was added to each vial, [^3H] […] The specific activity of the injected [^3H] compound was then used to calculate the tissue content as mol compound/g wet weight tissue.

P-gp = test: uptake of [3H] MitoF into tissues after pretreatment with CsA; format: in vivo, female C57/BL6 mice; settings: tissues 60 min later
Procedure: To assess the effects of co-administration of cyclosporin A (CsA) on the uptake of MitoF, female C57/BL6 mice (~ 20 g) were used. The mice were injected with CsA (Sandimmun, Novartis supplied as 50 mg/mL solution which was diluted 1:4 in sterile PBS and injected 100 μL at 50 mg/kg) IV by tail vein injection, or with PBS carrier, followed 30 min later with [^3H] MitoF (100 nmol) by IV tail vein injection and 60 min later the mice were killed and the tissues harvested. All procedures were approved by the University of Otago animal ethics committee.

[2] = published value; cited from earlier work
[3] = test system: P-glycoprotein (Mdr1a/1b) and breast cancer resistance protein (Bcrp); test: tissue and blood content of [3H] TPP compound after IV injection, transgenic mice lacking ABC transporters, compared with wild type; settings: for uptake into the brain, transgenic compared to wild type mice: radioactivity in brain over 20 h; for ratio of compound in the brain relative to the blood, transgenic versus WT: 5 h after IV injection of 100 nmol; for AUC for accumulation into the brain: transgenic mice
Procedure: as §1
Tissues were thawed at room temperature and transferred to 50 mL Falcon tubes. Ice-cold methanol (~ 4 °C; 1 mL/100 mg tissue wet weight) was added to the tissue and the tissue homogenised using an Ultra Turrax homogeniser (2 × 30 s on ice). The homogenate was transferred in 1 mL batches to 1.5 mL Eppendorf tubes and centrifuged (10,000 ×g for 8 min at 4 °C). The methanol extract was decanted into a 20 mL glass scintillation vial (Wheaton) and the methanol evaporated under a stream of N2. Further ice-cold methanol (1 mL/100 mg) was added to the tissue homogenate pellets, vortexed for 1 min, centrifuged as above and the methanol extract decanted to a fresh 20 mL glass scintillation vial and evaporated. This procedure was repeated 3 more times to give 5 extracts per tissue sample. […] Scintillant (OptiPhase HiSafe II; 10 mL) was added to each vial, [^3H] DPM content measured in a scintillation counter (LKB Wallac 1217 Rackbeta) using appropriate quench corrections and the total amount of radioactivity per sample calculated. The specific activity of the injected [^3H] compound was then used to calculate the tissue content as mol compound/g wet weight tissue.

[4] = test system: P-gp isoforms Mdr1a and Mdr1b; parameters: method as in PMID 19722701; settings: cited from earlier work
[5] = monitoring of mice after IV injection for pathology or distress; format: in vivo; settings: 100 nmol IV
Procedure: as §1

[6] = cited from earlier work
[7] = 100 nmol IV, 1 to 48 h post injection
[8] = 100 nmol IV, 1 to 20 h post injection

Row | SMILES | uptake by adipose tissue [1] | uptake by the heart [1] | uptake by the kidneys [1] | octan-1-ol/PBS partition coefficient [2] | uptake in the liver, transgenic mice compared to controls ([3]; 100 nmol IV) | uptake into heart, kidney and white adipose tissue, transgenic versus wild type mice ([3]; 100 nmol IV) | uptake into the brain, transgenic compared to wild type mice ([3]; 100 nmol IV) | ratio of compound in the brain relative to the blood, transgenic versus WT [3] | other results
1 | FCCCCCCCCCCC[P+](c1ccccc1)(c1ccccc1)c1ccccc1 [MitoF, Fluoroundecyltriphenylphosphonium] | lower uptake | less extensive uptake | extensive uptake | 740 ± 100 | increase in the uptake | no difference | greater uptake into the brain | increased uptake | AUC for accumulation into the brain ([1]; 1 to 48 h post injection): 1.9 nmol·h/g wet weight; effect of CsA on uptake into the brain, muscle, fat, heart or kidney (P-gp; CsA 50 mg/kg IV 30 min before 100 nmol [3H] MitoF IV): did not affect; effect of CsA on uptake into the liver (P-gp; CsA 50 mg/kg IV 30 min before 100 nmol [3H] compound IV): increase uptake; increase of brain AUC, transgenic versus WT [3, 7]: ~ 9 fold; AUC for accumulation into the brain [3, 7]: 16.6 nmol·h/g wet weight
2 | c1ccc([P+](c2ccccc2)(c2ccccc2)c2ccccc2)cc1 [tetraphenylphosphonium cation, tetraphenylphosphonium] |  |  |  |  |  |  |  |  | effect of ablation of Mdr1a and Mdr1b on uptake across the BBB [4]: did not increase
3 | COC1=C(OC)C(=O)C(CCCCCCCCCC[P+](c2ccccc2)(c2ccccc2)c2ccccc2)=C(C)C1=O [MitoQ, mitoquinone] | lower uptake | less extensive uptake | extensive uptake | 2760 | increase in the uptake | no difference | greater uptake into the brain | increased uptake | AUC for accumulation into the brain ([1]; 1 to 20 h post injection): 0.6 nmol·h/g wet weight; toxicity of the injected amount [5]: non-toxic; effect of CsA on biliary excretion [6]: inhibited; proportion of an IV dose excreted by the biliary pathway ([6]; within 4 h): 25%; increase of brain AUC, transgenic versus WT [3, 8]: ~ 4 fold; AUC for accumulation into the brain [3, 8]: 2.3 nmol·h/g wet weight
4 | C[P+](c1ccccc1)(c1ccccc1)c1ccccc1 [TPMP, methyltriphenylphosphonium, reference compound] | lower uptake | less extensive uptake |  |  | not |  | no difference |  | AUC for accumulation into the brain ([1]; 1 to 5 h post injection): 0.87 nmol·h/g wet weight; change of brain AUC, transgenic versus WT ([3]; 100 nmol IV, 1 to 5 h post injection): unchanged
